# Values of other authors, collected in patent publication EP0801943A2, “Cosmetic and dermatological photoprotective compositions containing a triazine derivative and alkyl and/or dialkylesters of alpha, omega-alkanedicarboxylic acid” (Beiersdorf Aktiengesellschaft, priority 1996, dated 1997).
# Conditions: maximum amount of the filter that known solvents (Bekannte Lösungsmittel) can dissolve; prior-art statement, no test described
structure (smiles),measurement,value
"CCCCC(CC)COC(=O)c1ccc(Nc2nc(Nc3ccc(C(=O)OCC(CC)CCCC)cc3)nc(Nc3ccc(C(=O)OCC(CC)CCCC)cc3)n2)cc1 (stereo not shown) [UVINUL® T 150, 4,4',4''-(1,3,5-Triazin-2,4,6-triyltriimino)-tris-benzoesäure-tris(2-ethylhexylester)]",Löslichkeit in Lipiden,≤ 15 Gew.-%
